No end group written: not given here. FLAG = FLAG epitope tag (3XFLAG, N-terminal)

In general, stoichiometry N refers to the number of molecules, sites or subunits per partner or assembly. A word on the Kd: it is a measure of binding affinity in units of concentration.

In one assay the test system is Rpn13 Cys88. Particulars: ref [22]; cited from earlier work. The text has this:
(§1) hRpn13 functions in ovarian and colorectal cancer proliferation, and its knockdown triggers apoptosis in these and other cancer cell lines.

In assay [1] the test system is multiple myeloma and ovarian cancer xenografts. As to conditions: ref [22]; cited from earlier work.
Excerpt: as §1

The subject of assay [2] is Rpn13 interdomain interactions. Particulars: ref [22]; cited from earlier work.
Excerpt: as §1

Assay [3] relates to ubiquitin-mediated protein degradation. Particulars: ref [22]; cited from earlier work.
Excerpt: as §1

For another assay, the system named is endogenous hRpn13. Nature of the assay: anti-FLAG immunoprecipitation, immunoprobed for endogenous hRpn13. In kind it is cell-based, human. Particulars: 293T cells transfected with p3XFLAG-CMV7.1 plasmid; anti-FLAG IP, anti-Rpn13 immunoblot. The procedure: (§2) 293T cells (purchased from ATCC) were cultured in DMEM supplemented with 10% fetal bovine serum at 37°C in a humidified atmosphere and 5% CO2. Plasmid DNA was transfected into 293T cells using Lipofectamine2000 (Invitrogen) according to the manufacturer’s instruction. Cells were harvested by gentle centrifugation at 500g for 5 minutes at 4°C after washing with PBS, and cell pellets were resuspended in 1% Triton-TBS buffer (50 mM Tris, pH7.5, 150 mM NaCl, 1 mM EDTA and protease inhibitor cocktail) followed by rocking at 4°C for 30 minutes. The supernatant was collected following centrifugation at 16,000g for 10 minutes and incubated with antibodies at 4°C overnight. Protein G sepharose beads (Sigma) were used to pull down interacting proteins by 3-hour incubation at 4°C. After extensive washing with 1% Triton TBS buffer, SDS-PAGE loading buffer was used to elute proteins from beads for immunoblotting.
The resulting plasmid was transfected into 293T cells and the cell lysate immunoprecipitated with anti-FLAG antibody.
(Immunoblotting shows a protein as a band on a membrane.)

In assay [4] the test system is ubiquitinated proteins in 293T cells. Nature of the assay: accumulation of ubiquitinated proteins, immunoblot of cell lysates. In kind it is cell-based, human. Particulars: 293T cells transfected with HA-ubiquitin and peptide plasmid; anti-ubiquitin immunoblot, actin loading control; Fig 6B. The method, then: as §2
We next tested whether over-expression of the hRpn2-derived peptide in 293T cells leads to the accumulation of ubiquitinated proteins. Lysates from cells transfected with HA-ubiquitin alone or together with either FLAG-hRpn2 (916–953) WT or F948Stop were subjected to immunoblotting with anti-ubiquitin antibody. Cells expressing F948Stop were used as a negative control, and immunoblotting with anti-actin antibody to confirm equivalent loading.

The test system of the next assay is hRpn13 at the proteasome. Nature of the assay: anti-hRpt3 immunoprecipitation of proteasome, immunoprobed for hRpn13 (displacement). In kind it is cell-based, human. Particulars: 293T cells over-expressing peptide; anti-hRpt3 IP, anti-hRpn13 immunoblot; Fig 6A. The procedure:
(§3) The DNA fragment encoding amino acid 916 to 953 of hRpn2 was amplified by PCR and cloned into the bacterial expression vector pRSET and mammalian expression vector p3XFLAG-CMV7.1. Antibodies used in this study include anti-FLAG (Sigma), anti-hRpn2 (cell signaling), anti-hRpt3 (Abcam), and anti-hRpn13 (Abcam).
as §2, with “After extensive washing with 1% Triton TBS buffer, SDS-PAGE loading buffer was used to elute proteins from beads for immunoblotting.” left out
(§4) We next tested whether over-expression of the hRpn2-derived peptide depletes hRpn13 from the proteasome. For this purpose, we immunoprecipitated proteasome by anti-hRpt3 antibody and detected the presence of hRpn13 by immunoprobing with anti-hRpn13 antibody.

In the next assay the test system is proteasome subunit hRpn2. Nature of the assay: anti-FLAG immunoprecipitation, immunoprobed for endogenous hRpn2. In kind it is cell-based, human. Particulars: 293T cells; anti-FLAG IP; Fig 5A. The procedure: as §3
as §2, with “immunoblotting. […]” for “immunoblotting.”

For a further assay, the system named is hRpn2 in the proteasome. The experiment in a line: anti-hRpt3 immunoprecipitation of proteasome, immunoprobed for hRpn2. In kind it is cell-based, human. As to conditions: 293T cells over-expressing peptide; anti-hRpt3 IP; Fig 6A. The procedure:
as §3
as §2, with “After extensive washing with 1% Triton TBS buffer, SDS-PAGE loading buffer was used to elute proteins from beads for immunoblotting.” left out
as §4

For the next assay, the system named is proteasome subunit hRpt3. Nature of the assay: anti-FLAG immunoprecipitation, immunoprobed for endogenous hRpt3. In kind it is cell-based, human. Particulars: 293T cells; anti-FLAG IP; Fig 5A. The procedure:
as §3
as §2, with “immunoblotting. […]” for “immunoblotting.”

Assay [5] has as its target T1, hRpn13 (1–150) (human, UniProt Q16186 1-150).
T1 construct: human Rpn13/Adrm1, Pru (pleckstrin-like receptor for ubiquitin) domain, residues 1-150; also called hRpn13 Pru domain; hRpn13 Pru
The experiment in a line: SEC + other: LC-MS; hRpn2 (916-953):hRpn13 Pru complex passed over a size exclusion column after mixing to remove excess component; molar ratio evaluated by LC-MS. As to conditions: both partners purified.

The target in assay [6] is T1, hRpn13 (1–150). The experiment in a line: ITC; 200 μM hRpn2 (916-953) injected into 20 μM hRpn13 (1-150) in the cell; 25°C; 20 mM sodium phosphate, 50 mM NaCl, 10 mM βME, pH 6.5; one-site fit. Particulars: both partners purified.

T1 sequence (Q16186 1-150): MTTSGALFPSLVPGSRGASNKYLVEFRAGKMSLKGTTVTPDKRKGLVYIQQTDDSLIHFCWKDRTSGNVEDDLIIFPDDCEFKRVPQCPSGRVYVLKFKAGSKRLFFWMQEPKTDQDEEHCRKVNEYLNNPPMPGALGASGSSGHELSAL

Turning to `Cl.N[C@@H](Cc1ccccc1)C(=O)N1C/C(=C/c2ccc(Cl)c(Cl)c2)C(=O)/C(=C\c2ccc(Cl)c(Cl)c2)C1` [RA190], the “covalent attachment to Rpn13” value in the assay with Rpn13 Cys88 was “covalently attaches to Rpn13 Cys88”. In addition, the “growth of multiple myeloma and ovarian cancer xenografts” value in [1] is “restricts growth of multiple myeloma and ovarian cancer xenografts”. Besides, in [2], the “effect on Rpn13 interdomain interactions” value is recorded as “abrogates Rpn13 interdomain interactions”. For the same molecule, the “effect on ubiquitin-mediated protein degradation” value in [3] is listed as “inhibits ubiquitin-mediated protein degradation”.

In the case of “F948 with arginine: FLAG-hRpn2 (916–953) variant with F948 replaced with arginine ({FLAG}-DTSEDIEELVEPVAAHGPKIEEEEQEPEPPEPREYIDD; UniProt Q99460 916-953, looked up, variant F948R)”, the “immunoprecipitation of / interaction with endogenous hRpn13” value (shortened to “immunoprecipitation of / interaction”) in the assay with endogenous hRpn13 is “unable to immunoprecipitate endogenous hRpn13 from 293T cells”.

In the case of “F948Stop: FLAG-hRpn2 (916–953) variant with F948 replaced with a stop codon; negative control (DTSEDIEELVEPVAAHGPKIEEEEQEPEPPEP; not fully specified (N-terminus))”, in [4], the “presence of ubiquitinated proteins in cell lysate” value is listed as “increase was not observed”. The “amount of hRpn13 at the proteasome” value with hRpn13 at the proteasome is reported as “does not deplete hRpn13 from proteasome”. In addition, the “immunoprecipitation of / interaction” value in the assay on endogenous hRpn13 is “does not bind hRpn13”.

Regarding “FLAG-hRpn2 (916–953) WT: hRpn2 (916–953) fragment in frame with an N-terminal FLAG tag, expressed from p3XFLAG-CMV7.1 in 293T cells ({FLAG}-DTSEDIEELVEPVAAHGPKIEEEEQEPEPPEPFEYIDD; UniProt Q99460 916-953, looked up, fragment)”, in assay [4], the “presence of ubiquitinated proteins in cell lysate” value was “increase in the presence of ubiquitinated proteins”. The “immunoprecipitation of endogenous hRpn2” value in the assay on proteasome subunit hRpn2 was “neither of these RP components was immunoprecipitated by the peptide”. In addition, in the assay with hRpn13 at the proteasome, the “amount of hRpn13 at the proteasome” value is “significantly reduced the amount of hRpn13 at the proteasome”. The “immunoprecipitation of / interaction” value with endogenous hRpn13 is recorded as “confirmed the interaction of the hRpn2-derived peptide with endogenous hRpn13 in 293T cells”. The “assembly of hRpn2 into the proteasome” value with hRpn2 in the proteasome is “not affected by expression of the hRpn2-derived peptide”. For the same molecule, the “immunoprecipitation of endogenous hRpt3” value in the assay on proteasome subunit hRpt3 is recorded as “neither of these RP components was immunoprecipitated by the peptide”.

B1: hRpn2 (916–953) (peptide)
chain: GPGSDTSEDIEELVEPVAAHGPKIEEEEQEPEPPEPFEYIDD
notes: amino acids that remained at the N-terminal end from the PreScission protease tag after cleavage; human Rpn2/PSMD1, proteasome PC repeat protein, residues 916-953 (the C-terminal 38 amino acids); also called hRpn2-derived peptide; 38-amino acid peptide derived from the C-terminus of hRpn2/PSMD1; source: E. coli, purified (glutathione S-sepharose, PreScission cleavage, Superdex 75); not shown: …
With B1, the “stoichiometry N” value with hRpn13 (1–150) [5] is 1. In the assay with hRpn13 (1–150) [6], this molecule yielded an equilibrium dissociation constant (Kd) of 0.012 µM.

The values above are taken from article PMC4605517 (PLoS ONE, 2015).
